Test results as given in patent US7183415B2, “Quinoline compound” (Takeda Pharmaceutical Company Limited, priority 2001, dated 2007).

| Compound | melting point [°C] |
| --- | --- |
| Cc1c(NC(=O)c2ccc(-c3ccc(F)cc3)cc2)ccc2cc(CN3CCC3)cnc12 [Example 191, N-[3-(1-azetidinylmethyl)-8-methyl-7-quinolinyl]-4′-fluoro[1,1′-biphenyl]-4-carboxamide] | 153 to 155 |
| Cc1c(NC(=O)c2ccc(-c3ccc(F)cc3)cc2)ccc2cc(CN3[C@H](C)CCC[C@@H]3C)cnc12 [Example 193, N-(3-{[(2R,6S)-2,6-dimethylpiperidinyl]methyl}-8-methyl-7-quinolinyl)-4′-fluoro[1,1′-biphenyl]-4-carboxamide] | 167 to 168 |
| Cc1c(NC(=O)c2ccc(-c3ccc(F)cc3)cc2)ccc2cc(CN(C(C)C)C(C)C)cnc12 [Example 194, N-{3-[(diisopropylamino)methyl]-8-methyl-7-quinolinyl}-4′-fluoro[1,1′-biphenyl]-4-carboxamide] | 179 to 180 |
| Cc1c(NC(=O)c2ccc(-c3ccc(F)cc3)cc2)ccc2cc(CN3CCOCC3)cnc12 [Example 198, 4′-fluoro-N-[8-methyl-3-(4-morpholinylmethyl)-7-quinolinyl][1,1′-biphenyl]-4-carboxamide] | 176 to 178 |
| Cc1c(NC(=O)c2ccc(-c3ccc(F)cc3)cc2)ccc2cc(CN3CCC(CC(N)=O)CC3)cnc12 [Example 200, N-(3-{[4-(2-amino-2-oxoethyl)-1-piperidinyl]methyl}-8-methyl-7-quinolinyl)-4′-fluoro[1,1′-biphenyl]-4-carboxamide] | 258 to 260 |
| CNC(=O)CC1CCN(Cc2cnc3c(C)c(NC(=O)c4ccc(-c5ccc(F)cc5)cc4)ccc3c2)CC1 [Example 201, 4′-fluoro-N-[8-methyl-3-({4-[2-(methylamino)-2-oxoethyl]-1-piperidinyl}methyl)-7-quinolinyl][1,1′-biphenyl]-4-carboxamide] | 229 to 231 |
| Cc1c(NC(=O)c2ccc(-c3ccc(F)cc3)cc2)ccc2cc(CN3CCC(CC(=O)N(C)C)CC3)cnc12 [Example 202, N-[3-({4-[2-(dimethylamino)-2-oxoethyl]-1-piperidinyl}methyl)-8-methyl-7-quinolinyl]-4′-fluoro[1,1′-biphenyl]-4-carboxamide] | 200 to 201 |
| CCNC(=O)CC1CCN(Cc2cnc3c(C)c(NC(=O)c4ccc(-c5ccc(F)cc5)cc4)ccc3c2)CC1 [Example 203, N-[3-({4-[2-(ethylamino)-2-oxoethyl]-1-piperidinyl}methyl)-8-methyl-7-quinolinyl]-4′-fluoro[1,1′-biphenyl]-4-carboxamide] | 243 to 245 |
| CCN(CC)C(=O)CC1CCN(Cc2cnc3c(C)c(NC(=O)c4ccc(-c5ccc(F)cc5)cc4)ccc3c2)CC1 [Example 204, N-[3-({4-[2-(diethylamino)-2-oxoethyl]-1-piperidinyl}methyl)-8-methyl-7-quinolinyl]-4′-fluoro[1,1′-biphenyl]-4-carboxamide] | 158 to 160 |
| Cc1c(NC(=O)c2ccc(-c3ccc(F)cc3)cc2)ccc2cc(CN3CCC(CC(=O)N4CCCCC4)CC3)cnc12 [Example 205, 4′-fluoro-N-[8-methyl-3-({4-[2-oxo-2-(1-piperidinyl)ethyl]-1-piperidinyl}methyl)-7-quinolinyl][1,1′-biphenyl]-4-carboxamide] | 189 to 190 |
| Cc1c(NC(=O)c2ccc(-c3ccc(F)cc3)cc2)ccc2cc(CN3CCC(CCCC(N)=O)CC3)cnc12 [Example 206, N-(3-{[4-(4-amino-4-oxobutyl)-1-piperidinyl]methyl}-8-methyl-7-quinolinyl)-4′-fluoro[1,1′-biphenyl]-4-carboxamide] | 232 to 234 |
| CNC(=O)CCCC1CCN(Cc2cnc3c(C)c(NC(=O)c4ccc(-c5ccc(F)cc5)cc4)ccc3c2)CC1 [Example 207, 4′-fluoro-N-[8-methyl-3-({4-[4-(methylamino)-4-oxobutyl]-1-piperidinyl}methyl)-7-quinolinyl][1,1′-biphenyl]-4-carboxamide] | 210 to 212 |
| Cc1c(NC(=O)c2ccc(-c3ccc(F)cc3)cc2)ccc2cc(CN3CCC(CCCC(=O)N(C)C)CC3)cnc12 [Example 208, N-[3-({4-[4-(dimethylamino)-4-oxobutyl]-1-piperidinyl}methyl)-8-methyl-7-quinolinyl]-4′-fluoro[1,1′-biphenyl]-4-carboxamide] | 202 to 204 |
| CCNC(=O)CCCC1CCN(Cc2cnc3c(C)c(NC(=O)c4ccc(-c5ccc(F)cc5)cc4)ccc3c2)CC1 [Example 209, N-[3-({4-[4-(ethylamino)-4-oxobutyl]-1-piperidinyl}methyl)-8-methyl-7-quinolinyl]-4′-fluoro[1,1′-biphenyl]-4-carboxamide] | 217 to 220 |
| CCN(CC)C(=O)CCCC1CCN(Cc2cnc3c(C)c(NC(=O)c4ccc(-c5ccc(F)cc5)cc4)ccc3c2)CC1 [Example 210, N-[3-({4-[4-(diethylamino)-4-oxobutyl]-1-piperidinyl}methyl)-8-methyl-7-quinolinyl]-4′-fluoro[1,1′-biphenyl]-4-carboxamide] | 145 to 146 |
| Cc1c(NC(=O)c2ccc(-c3ccc(F)cc3)cc2)ccc2cc(CN3CCC(CCCC(=O)N4CCCCC4)CC3)cnc12 [Example 211, 4′-fluoro-N-[8-methyl-3-({4-[4-oxo-4-(1-piperidinyl)butyl]-1-piperidinyl}methyl)-7-quinolinyl][1,1′-biphenyl]-4-carboxamide] | 154 to 156 |
| Cc1cc2cc(CN3CCCC3)cnc2cc1NC(=O)c1ccc(-c2ccccc2F)cc1 [Example 213, 2′-fluoro-N-[6-methyl-3-(1-pyrrolidinylmethyl)-7-quinolinyl][1,1′-biphenyl]-4-carboxamide] | 148 to 149 |

| Compound | melting point [°C] |
| --- | --- |
| Cc1cc2cc(CN3CCCC3)cnc2cc1NC(=O)c1ccc(-c2ccc(F)cc2F)cc1 [Example 214, 2′,4′-difluoro-N-[6-methyl-3-(1-pyrrolidinylmethyl)-7-quinolinyl][1,1′-biphenyl]-4-carboxamide] | 158 to 160 |
| Cc1cc2cc(CN3CCCC3)cnc2cc1NC(=O)c1ccc(-c2ccc(C(F)(F)F)cc2)cc1 [Example 215, N-[6-methyl-3-(1-pyrrolidinylmethyl)-7-quinolinyl]-4′-(trifluoromethyl)[1,1′-biphenyl]-4-carboxamide] | 216 to 219 |
| Cc1cc2cc(CN3CCCC3)cnc2cc1NC(=O)c1ccc(-c2ccc(F)c(F)c2)cc1 [Example 216, 3′,4′-difluoro-N-[6-methyl-3-(1-pyrrolidinylmethyl)-7-quinolinyl][1,1′-biphenyl]-4-carboxamide] | 220 to 223 |
| CCc1ccc(-c2ccc(C(=O)Nc3cc4ncc(CN5CCCC5)cc4cc3C)cc2)cc1 [Example 217, 4′-ethyl-N-[6-methyl-3-(1-pyrrolidinylmethyl)-7-quinolinyl][1,1′-biphenyl]-4-carboxamide] | 188 |
| CSc1ccc(-c2ccc(C(=O)Nc3cc4ncc(CN5CCCC5)cc4cc3C)cc2)cc1 [Example 219, N-[6-methyl-3-(1-pyrrolidinylmethyl)-7-quinolinyl]-4′-(methylthio)-[1,1′-biphenyl]-4-carboxamide] | 198 |
| Cc1cc2cc(CN3CCCC3)cnc2cc1NC(=O)c1ccc(-c2ccc(Cl)s2)cc1 [Example 220, 4-(5-chlorothien-2-yl)-N-[6-methyl-3-(1-pyrrolidinylmethyl)-7-quinolinyl]benzamide] | 216 |
| Cc1cc2cc(CN3CCCC3)cnc2cc1NC(=O)c1ccc(-c2ccc3ccccc3c2)cc1 [Example 222, N-[6-methyl-3-(1-pyrrolidinylmethyl)-7-quinolinyl]-4-(2-naphthyl)benzamide] | 194 |
| Cc1cc2cc(CN3CCCC3)cnc2cc1NC(=O)c1ccc(-c2ccsc2)cc1 [Example 223, N-[6-methyl-3-(1-pyrrolidinylmethyl)-7-quinolinyl]-4-thien-3-ylbenzamide] | 187 |
| Cc1cc2cc(CN3CCCC3)cnc2cc1NC(=O)c1ccc(-c2ccco2)cc1 [Example 224, 4-(2-furyl)-N-[6-methyl-3-(1-pyrrolidinylmethyl)-7-quinolinyl]benzamide] | 154 |
| Cc1cc2cc(CN3CCCC3)cnc2cc1NC(=O)c1ccc(-c2ccccc2)cc1F [Example 226, 3-fluoro-N-[6-methyl-3-(1-pyrrolidinylmethyl)-7-quinolinyl][1,1′-biphenyl]-4-carboxamide] | 180 to 183 |
| COc1ccc(-c2ccc(C(=O)Nc3cc4ncc(CN5CCCC5)cc4cc3C)c(F)c2)cc1 [Example 227, 3-fluoro-4′-methoxy-N-[6-methyl-3-(1-pyrrolidinylmethyl)-7-quinolinyl][1,1′-biphenyl]-4-carboxamide] | 187 to 190 |
| Cc1cc2cc(CN3CCCC3)cnc2cc1NC(=O)c1ccc(-c2ccc(F)cc2)cc1F [Example 228, 3,4′-difluoro-N-[6-methyl-3-(1-pyrrolidinylmethyl)-7-quinolinyl][1,1′-biphenyl]-4-carboxamide] | 174 to 177 |
| Cc1ccc(-c2ccc(C(=O)Nc3cc4ncc(CN5CCCC5)cc4cc3C)c(F)c2)cc1 [Example 229, 3-fluoro-4′-methyl-N-[6-methyl-3-(1-pyrrolidinylmethyl)-7-quinolinyl][1,1′-biphenyl]-4-carboxamide] | 176 to 179 |
| Cc1cc2cc(CN3CCCC3)cnc2cc1NC(=O)c1ccc(-c2ccc(Cl)cc2)cc1F [Example 230, 4′-chloro-3-fluoro-N-[6-methyl-3-(1-pyrrolidinylmethyl)-7-quinolinyl][1,1′-biphenyl]-4-carboxamide] | 195 to 198 |
| Cc1cc2cc(CN3CCCC3)cnc2cc1NC(=O)c1ccc(-c2ccccc2)c(F)c1 [Example 232, 2-fluoro-N-[6-methyl-3-(1-pyrrolidinylmethyl)-7-quinolinyl][1,1′-biphenyl]-4-carboxamide] | 167 to 170 |
| Cc1cc2cc(CN3CCCC3)cnc2cc1NC(=O)c1ccc(-c2ccc(F)cc2)c(F)c1 [Example 233, 2,4′-difluoro-N-[6-methyl-3-(1-pyrrolidinylmethyl)-7-quinolinyl][1,1′-biphenyl]-4-carboxamide] | 163 to 166 |
| Cc1ccc(-c2ccc(C(=O)Nc3cc4ncc(CN5CCCC5)cc4cc3C)cc2F)cc1 [Example 234, 2-fluoro-4′-methyl-N-[6-methyl-3-(1-pyrrolidinylmethyl)-7-quinolinyl][1,1′-biphenyl]-4-carboxamide] | 175 to 178 |
